This note sets out measurements from patent US11028090B2 (Dong Wha Pharm. Co., Ltd., priority 2017, dated 2021).

One may read the pIC50 as −log10 of the IC50, conventionally taken in molar units.

Each structure is given as a SMILES string. pIC50: −log10 of the molar value. Structures can show the parent of a compound that is named as a salt. Where two headings read alike, the source gives them in different places.

For experiment [1], the target named is BRD4 (BD1+BD2) bromodomain (Homo sapiens (Human), UniProt O60885). The experiment can be described thus: BRD4 binding inhibition (AlphaScreen, GST-BRD4 vs tetraacetylated histone H4 peptide). The method, boiled down: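 AlphaScreen read after 30 min dark incubation at room temperature with glutathione acceptor/streptavidin donor beads (10 μg/ml each). The beads were added to compound plus 100 nM biotin-H4 (K5,8,12,16-acetyl) peptide and 100 nM GST-BRD4 BD1+BD2 in pH 7.4 HEPES/Tween/BSA/DTT buffer.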

The test system of experiment [2] is acute myelogenous leukemia cells (MV-4-11 cells). The experiment is described as follows: Cytotoxicity to acute myelogenous leukemia cells (MV-4-11 cells), CCK-8. Particulars: Homo sapiens, MV4-11, 72 h.
The mark [3] stands for this setting: GST-BRD4 (BD1+BD2) / biotinylated acetyl-histone H4 (Lys5,8,12,16) peptide, read-out: IC50, BRD4 binding inhibition.
Setting [4] is: GST-BRD4 (BD1+BD2) vs biotinylated acetyl-histone H4 peptide, AlphaScreen, read-out: BRD4 IC50.
The mark [5] stands for this setting: read-out: IC50, cytotoxicity against acute myelogenous leukemia cells.
[6] abbreviates: read-out: MV-4-11 Cytotoxicity IC50.

`Cc1nnc2c(NCCCCNC(=O)Cc3cccs3)nc3cc(-n4ccnc4)ccc3n12` [Example 496, N-[4-(7-imidazole-1-yl-1-methyl-[1,2,4]triazolo[4,3-a]quinoxaline-4-ylamino)-butyl]-2-thiophene-2-yl-acetamide]: the pIC50 in experiment [1] (setting [3]) is at least 8.00; in experiment [1] (setting [4]), 8.00; in experiment [2] (setting [5]), at least 6.70; in experiment [2] (setting [6]), 7.70.

As for `Cc1nnc2c(NCCCCNC(=O)OC(C)(C)C)nc3cc(N4CCOCC4)ccc3n12` [Example 497, [4-(1-methyl-7-morpholine-4-yl-[1,2,4]triazolo[4,3-a]quinoxaline-4-ylamino)-butyl]-carbamic acid-tert-butylester], the pIC50 in experiment [1] (setting [3]) was at least 7.30; in experiment [1] (setting [4]), 7.42; in experiment [2] (setting [6]) it was 6.14.

As to `Cc1nnc2c(NCCCCNC(=O)CC(C)C)nc3cc(N4CCOCC4)ccc3n12` [Example 499, 3-methyl-N-[4-(1-methyl-7-morpholine-4-yl-[1,2,4]triazolo[4,3-a]quinoxaline-4-ylamino)-butyl]-butyramide], the pIC50 was at least 8.00 in experiment [1] (setting [3]), 8.00 in experiment [1] (setting [4]), at least 6.70 in experiment [2] (setting [5]) and 6.85 in experiment [2] (setting [6]).

As for `Cc1nnc2c(NCCCCNC(=O)[C@@H](F)C(C)C)nc3cc(N4CCOCC4)ccc3n12` [Example 500, 2-(S)-fluoro-3-methyl-N-[4-(1-methyl-7-morpholine-4-yl-[1,2,4]triazolo[4,3-a]quinoxaline-4-ylamino)-butyl]-butyramide], the pIC50 in experiment [1] (setting [3]) was at least 7.30; in experiment [1] (setting [4]), 7.40; in experiment [2] (setting [5]), at least 6.70; in experiment [2] (setting [6]), 7.01.

For the compound `CCC(C)CC(=O)NCCCCNc1nc2cc(N3CCOCC3)ccc2n2c(C)nnc12` (stereo not drawn) [Example 501, 3-methyl-pentanoic acid-[4-(1-methyl-7-morpholine-4-yl-[1,2,4]triazolo[4,3-a]quinoxaline-4-ylamino)-butyl]-amide], the pIC50 is at least 8.00 in experiment [1] (setting [3]), 8.05 in experiment [1] (setting [4]), at least 6.70 in experiment [2] (setting [5]) and 7.22 in experiment [2] (setting [6]).

On to `Cc1nnc2c(NCCCCNC(=O)[C@@H](NC(=O)OC(C)(C)C)C(C)C)nc3cc(N4CCOCC4)ccc3n12` [Example 502, (S)-{2-methyl-1-[4-(1-methyl-7-morpholine-4-yl-[1,2,4]triazolo[4,3-a]quinoxaline-4-ylamino)-butylcarbamoyl]-propyl}-carbamic acid-tert-butylester], for which the results for the pIC50 in experiment [1] (setting [3]), in experiment [1] (setting [4]) and in experiment [2] (setting [6]) were at least 7.30, 7.52 and 6.48, respectively.

For `Cc1nnc2c(NCCCCNC(=O)[C@@H](N)C(C)C)nc3cc(N4CCOCC4)ccc3n12` [Example 503, 2-(S)-amino-3-methyl-N-[4-(1-methyl-7-morpholine-4-yl-[1,2,4]triazolo[4,3-a]quinoxaline-4-ylamino)-butyl]-butyramide hydrochloride], the pIC50 in experiment [1] (setting [4]) is 7.20; in experiment [2] (setting [6]), 6.24.

With `Cc1nnc2c(NCCCCNC(=O)[C@@H](NS(C)(=O)=O)C(C)C)nc3cc(N4CCOCC4)ccc3n12` [Example 505, 2-(S)-methanesulfonylamino-3-methyl-N-[4-(1-methyl-7-morphonyl-4-yl-[1,2,4]triazolo[4,3-a]quinoxaline-4-ylamino)-butyl]-butyramide], the figures for the pIC50 in experiment [1] (setting [3]), in experiment [1] (setting [4]) and in experiment [2] (setting [6]) were at least 7.30, 7.59 and 6.27, respectively.

On to `Cc1nnc2c(NCCCCNC(=O)OC(C)C)nc3cc(N4CCOCC4)ccc3n12` [Example 506, [4-(1-methyl-7-morpholine-4-yl-[1,2,4]triazolo[4,3-a]quinoxaline-4-ylamino)-butyl]-carbamic acid isopropylester], for which the pIC50 in experiment [1] (setting [3]) was at least 7.30; in experiment [1] (setting [4]), 7.82; in experiment [2] (setting [6]) it was 6.47.

With `Cc1nnc2c(NCCCCNC(=O)Cc3cccs3)nc3cc(N4CCOCC4)ccc3n12` [Example 507, N-[4-(1-methyl-7-morpholine-4-yl-[1,2,4]triazolo[4,3-a]quinoxaline-4-ylamino)-butyl]-2-thiophene-2-yl-acetamide], the pIC50 in experiment [1] (setting [3]) is at least 7.30; in experiment [1] (setting [4]), 7.96; in experiment [2] (setting [5]), at least 6.70; in experiment [2] (setting [6]), 7.68.

`Cc1nnc2c(NCCCCNC(=O)OC(C)(C)C)nc3cc(N4C[C@@H](C)O[C@@H](C)C4)ccc3n12` [Example 508, {4-[7-(2,6-dimethyl-morphonyl-4-yl)-1-methyl-[1,2,4]triazolo[4,3-a]quinoxaline-4-ylamino]-butyl}-carbamic acid-tert-butylester]: the values for the pIC50 in experiment [1] (setting [3]), in experiment [1] (setting [4]) and in experiment [2] (setting [6]) were at least 7.30, 7.54 and 6.24, respectively.

As to `Cc1nnc2c(NCCCCNC(=O)CC(C)C)nc3cc(N4C[C@@H](C)O[C@@H](C)C4)ccc3n12` [Example 510, N-{4-[7-(2,6-dimethyl-morpholine-4-yl)-1-methyl-[1,2,4]triazolo[4,3-a]quinoxaline-4-ylamino]-butyl}-3-methyl-butyramide], the pIC50 in experiment [1] (setting [4]) is 7.24; in experiment [2] (setting [6]) it was 6.47.

Consider `Cc1nnc2c(NCCCCNC(=O)[C@H](O)C(C)C)nc3cc(N4C[C@@H](C)O[C@@H](C)C4)ccc3n12` [Example 512, N-{4-[7-(2,6-dimethyl-morpholine-4-yl)-1-methyl-[1,2,4]triazolo[4,3-a]quinoxaline-4-ylamino]-butyl}-2-(R)-hydroxy-3-methyl-butyramide], for which the pIC50 in experiment [1] (setting [4]) is 7.19; in experiment [2] (setting [6]), 6.20.

As to `Cc1nnc2c(NCCCCNC(=O)[C@@H](NC(=O)OC(C)(C)C)C(C)C)nc3cc(N4C[C@@H](C)O[C@@H](C)C4)ccc3n12` [Example 513, (S)-{2-methyl-1-[4-(1-methyl-7-(2,6-dimethyl-morpholine-4-yl)-[1,2,4]triazolo[4,3-a]quinoxaline-4-ylamino)-butylcarbamoyl]-propyl}-carbamic acid-tert-butylester], the pIC50 in experiment [1] (setting [3]) is at least 7.30; in experiment [1] (setting [4]), 7.72; in experiment [2] (setting [6]), 6.55.

Consider `Cc1nnc2c(NCCCCNC(=O)[C@@H](N)C(C)C)nc3cc(N4CC(C)OC(C)C4)ccc3n12` (stereo partly drawn) [Example 514, 2-(S)-amino-N-{4-[7-(2,6-dimethyl-morpholine-4-yl)-1-methyl-[1,2,4]triazolo[4,3-a]quinoxaline-4-ylamino]-butyl}-3-methyl-butyramide hydrochloride], for which the results for the pIC50 in experiment [1] (setting [4]) and in experiment [2] (setting [6]) were 7.22 and 6.36, respectively.

With `Cc1nnc2c(NCCCCNC(=O)[C@@H](NC(=O)OCC(C)C)C(C)C)nc3cc(N4C[C@@H](C)O[C@@H](C)C4)ccc3n12` [Example 515, (S)-(1-{4-[7-(2,6-dimethyl-morpholine-4-yl)-1-methyl-[1,2,4]triazolo[4,3-a]quinoxaline-4-ylamino]-butylcarbamoyl}-2-methyl-propyl)-carbamic acid isobutylester], the pIC50 in experiment [1] (setting [3]) was at least 7.30; in experiment [2] (setting [5]) it was at least 6.70; in experiment [2] (setting [6]), 7.05.

For `CCCOC(=O)N[C@H](C(=O)NCCCCNc1nc2cc(N3C[C@@H](C)O[C@@H](C)C3)ccc2n2c(C)nnc12)C(C)C` [Example 516, (S)-(1-{4-[7-(2,6-dimethyl-morpholine-4-yl)-1-methyl-[1,2,4]triazolo[4,3-a]quinoxaline-4-ylamino]-butylcarbamoyl}-2-methyl-propyl)-carbamic acid propylester], the negative-log IC50 (pIC50) in experiment [1] (setting [3]) was at least 7.30; in experiment [2] (setting [6]), 6.29.
